Laboratory results taken from patent publication US11293045B2, “Method for electrochemical detection of mycobacteria” (UNIVERSITÉ DE BOURGOGNE, priority 2017, dated 2022).

Test: Linear voltammetry of substrate and product solutions on screen-printed carbon sensors
Type: physicochemical
Conditions: linear voltammetry v=50 mV·s^−1; 5×10^−4 M in PBS (pH 7.5)—0.2% DMSO; vs. Ag/AgCl
Protocol: FIG. 2 represents the linear voltammograms (v=50 mV·s^−1) of a solution of substrate (p-AP-OG; S) and of product (p-AP-G; dashed curve; P) at 5×10^−4 M in PBS (pH 7.5)—0.2% DMSO.
The electrochemical measurements were carried out by linear voltammetry (v=50 mV·s^−1) with a 910 PSTAT mini potentiostat (Metrohm, France) powered through the USB connection of the computer and controlled by the PSTAT software (version 1.0). To do this, drops of solution of 30-50 μl were deposited on the surface of single-use screen-printed carbon sensors supplied by Dropsens (DRP-110) and connected to the potentiostat via the connector (DRP-DSC). The amperometric detection of the product generated during the reaction catalyzed by Ag85 was always carried out after a step of filtration of the reaction mixture with a filtration device (Microcon 10 kDa, Millipore). All the potentials are measured relative to the Ag/AgCl reference electrode.

With Nc1ccc(O[C@@H]2O[C@H](CO)[C@@H](O)[C@H](O)[C@H]2O)cc1 [p-AP-G, p-aminophenyl-β-D-glucopyranoside] the oxidation peak potential was “~+0.4 V”.
For CCCCCCCC(=O)OC[C@H]1O[C@@H](Oc2ccc(N)cc2)[C@H](O)[C@@H](O)[C@@H]1O [p-AP-OG, p-aminophenyl-6-O-octanoyl-β-D-glucopyranoside], the oxidation peak potential was “~+0.2 V”.
